Measurements taken from patent publication US20260347361A1, “LRRK2 INHIBITORS AND USES THEREOF” (NEURON23, INC, priority 2022, published 2026).

Target: T1, wt human LRRK2 (Homo sapiens, UniProt Q5S007)
T1 construct: wt human LRRK2, catalytic site, catalytic site (ThermoFisher/USA); purchased ThermoFisher
Assay: TR-FRET LanthaScreen Tb Kinase Activity Assay, inhibition of LRRK2 kinase
Format: biochemical
Conditions: 2 nM wt human LRRK2, 400 nM fluorescein-ERM (LRRKtide) peptide, 38 µM ATP, 15 min pre-incubation, 120 min at room temperature

T1 sequence (Q5S007 970-2527 limits assumed): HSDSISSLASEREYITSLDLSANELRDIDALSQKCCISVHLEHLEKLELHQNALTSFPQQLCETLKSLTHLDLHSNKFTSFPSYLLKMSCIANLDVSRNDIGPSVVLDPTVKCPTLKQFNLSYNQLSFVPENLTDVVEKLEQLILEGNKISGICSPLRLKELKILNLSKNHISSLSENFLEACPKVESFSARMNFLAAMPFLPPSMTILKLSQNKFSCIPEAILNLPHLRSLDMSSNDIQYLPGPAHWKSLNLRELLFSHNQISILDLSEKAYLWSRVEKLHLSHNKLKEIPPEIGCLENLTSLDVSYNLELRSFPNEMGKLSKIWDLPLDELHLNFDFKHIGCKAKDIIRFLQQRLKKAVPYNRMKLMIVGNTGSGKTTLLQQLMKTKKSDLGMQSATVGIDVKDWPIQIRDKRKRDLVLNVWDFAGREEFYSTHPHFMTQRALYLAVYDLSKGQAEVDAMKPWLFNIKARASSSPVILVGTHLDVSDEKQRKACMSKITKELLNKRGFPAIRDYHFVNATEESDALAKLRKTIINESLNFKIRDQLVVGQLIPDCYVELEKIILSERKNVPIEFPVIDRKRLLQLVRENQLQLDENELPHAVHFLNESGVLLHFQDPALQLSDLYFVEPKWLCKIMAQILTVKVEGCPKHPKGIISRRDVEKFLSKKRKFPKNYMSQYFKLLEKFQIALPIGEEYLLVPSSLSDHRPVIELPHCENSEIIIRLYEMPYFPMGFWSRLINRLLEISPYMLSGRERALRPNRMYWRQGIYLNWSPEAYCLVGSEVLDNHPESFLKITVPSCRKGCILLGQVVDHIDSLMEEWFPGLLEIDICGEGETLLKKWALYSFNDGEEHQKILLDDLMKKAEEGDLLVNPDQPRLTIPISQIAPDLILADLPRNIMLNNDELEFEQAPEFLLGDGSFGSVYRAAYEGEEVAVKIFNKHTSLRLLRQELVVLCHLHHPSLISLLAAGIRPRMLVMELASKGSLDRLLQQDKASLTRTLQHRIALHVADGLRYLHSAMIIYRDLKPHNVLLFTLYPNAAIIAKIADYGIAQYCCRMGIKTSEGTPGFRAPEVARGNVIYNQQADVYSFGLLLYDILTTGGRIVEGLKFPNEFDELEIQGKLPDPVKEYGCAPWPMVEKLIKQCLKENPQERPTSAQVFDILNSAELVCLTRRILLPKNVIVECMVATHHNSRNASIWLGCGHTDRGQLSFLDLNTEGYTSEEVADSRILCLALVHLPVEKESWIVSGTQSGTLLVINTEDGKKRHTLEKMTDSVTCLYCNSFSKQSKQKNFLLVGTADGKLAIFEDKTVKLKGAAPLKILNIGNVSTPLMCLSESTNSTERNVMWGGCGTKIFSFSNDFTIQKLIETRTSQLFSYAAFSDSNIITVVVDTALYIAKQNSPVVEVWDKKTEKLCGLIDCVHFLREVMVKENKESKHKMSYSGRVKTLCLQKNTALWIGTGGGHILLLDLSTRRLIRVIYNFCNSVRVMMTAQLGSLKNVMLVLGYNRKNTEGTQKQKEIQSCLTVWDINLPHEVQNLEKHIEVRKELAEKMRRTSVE

Row | Structure (SMILES) | IC50
1 | C[C@H]1CN(c2cc3c(cn2)NC(c2c(F)cccc2F)=Nc2c(Cl)cnn2-3)C[C@H](C)O1 [(2S,6S)-4-[5-chloro-8-(2,6-difluorophenyl)-2,3,7,9,12-pentazatricyclo[8.4.0.02,6]tetradeca-1(10),3,5,7,11,13-hexaen-13-yl]-2,6-dimethyl-morpholine] | < 50 nM
2 | C[C@@H]1COCCN1c1ccc2c(c1)-n1ncc(Cl)c1N=C(c1c(F)cccc1F)N2 [(3R)-4-[3-chloro-5-(2,6-difluorophenyl)-6H-pyrazolo[1,5-a][1,3,5]benzotriazepin-9-yl]-3-methyl-morpholine] | < 50 nM
3 | C[C@H]1COCCN1c1ccc2c(c1)-n1ncc(Cl)c1N=C(c1c(F)cccc1F)N2 [(3S)-4-[3-chloro-5-(2,6-difluorophenyl)-6H-pyrazolo[1,5-a][1,3,5]benzotriazepin-9-yl]-3-methyl-morpholine] | < 50 nM
4 | C[C@H]1CN(c2cc3c(cn2)NC(c2c(F)cccc2F)=Nc2c(F)cnn2-3)CCO1 [(S)-4-(5-(2,6-difluorophenyl)-3-fluoro-6H-pyrazolo[1,5-a]pyrido[3,4-f][1,3,5]triazepin-9-yl)-2-methylmorpholine] | < 50 nM
5 | C[C@H]1CN(c2cc3c(cn2)NC(c2c(F)cccc2F)=Nc2ccnn2-3)CCO1 [(S)-4-(5-(2,6-difluorophenyl)-6H-pyrazolo[1,5-a]pyrido[3,4-f][1,3,5]triazepin-9-yl)-2-methylmorpholine] | < 50 nM
6 | CC(C)(O)c1ccc2c(c1)-n1ncc(Cl)c1N=C(c1c(F)cccc1F)N2 [Methyl 2-[3-chloro-5-(2,6-difluorophenyl)-6H-pyrazolo[1,5-a][1,3,5]benzotriazepin-9-yl]propan-2-ol] | 50 to 200 nM
7 | COC(=O)c1ccc2c(c1)-n1ncc(Cl)c1N=C(c1c(F)cccc1F)N2 [Methyl 3-chloro-5-(2,6-difluorophenyl)-6H-pyrazolo[1,5-a][1,3,5]benzotriazepine-9-carboxylate] | < 50 nM
8 | O=C(O)c1ccc2c(c1)-n1ncc(Cl)c1N=C(c1c(F)cccc1F)N2 [Methyl 3-chloro-5-(2,6-difluorophenyl)-6H-pyrazolo[1,5-a][1,3,5]benzotriazepine-9-carboxylic acid] | > 200 nM
9 | COC(=O)c1cnc2c(c1)-n1ncc(Cl)c1N=C(c1c(F)cccc1F)N2 [Methyl 5-chloro-8-(2,6-difluorophenyl)-2,3,7,9,11-pentazatricyclo[8.4.0.02,6]tetradeca-1(10),3,5,7,11,13-hexaene-13-carboxylate] | < 50 nM
10 | CC(C)(C)NC(=O)c1ccc2c(c1)-n1ncc(Cl)c1N=C(c1c(F)cccc1F)N2 [N-(tert-butyl)-3-chloro-5-(2,6-difluorophenyl)-6H-benzo[f]pyrazolo[1,5-a][1,3,5]triazepine-9-carboxamide] | < 50 nM
